Patent publication US10508120B2, “TYK2 inhibitors and uses thereof” (Nimbus Lakshmi, Inc., priority 2017, dated 2019)
Read-outs that look alike come from different tables or passages of the source.

Experiments:
[1] = target: human TYK2 (JH2domain-pseudokinase) (Homo sapiens (Human), UniProt P29597); test: TYK2 JH2 Domain Binding Assay (KINOMEscan)
Method in brief: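 The construct was human TYK2 G556–D888 fused to the NFkB DNA-binding domain and expressed in HEK293 cells; unpurified extract was incubated with compound and liganded beads for 1 hour at room temperature.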

Tyk2 kinase domain (DH1) = Tyk2 kinase domain (DH1) (Homo sapiens (Human), UniProt P29597); test: Tyk2 Radioactive Kinase Assay; format: biochemical; details: read-out: Tyk2 JH1% Inhibition @ 10 μM
Method in brief: (§1)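 Values are single-concentration percent inhibition figures. They were obtained with 10 μM compound in a radioactivity-based kinase assay run separately on each enzyme.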

JAK2 kinase domain (JH1) = JAK2 kinase domain (JH1) (Homo sapiens (Human), UniProt O60674); test: JAK2 Radioactive Kinase Assay; format: biochemical; details: read-out: JAK2 JH1% Inhibition @ 10 μM
Method in brief: as §1

[2] = target: Tyk2/JAK2 (heterodimeric complex) (Homo sapiens (Human), UniProt P29597); test: IL-12 Induced pSTAT4 in Human PBMC; format: cell-based; details: 1.7 ng/mL IL-12
Description: The IL-12 Induced pSTAT4 assay evaluates the inhibition of IL-12 induced STAT4 phophorylation mediated by Tyk2/JAK2 (heterodimeric complex).

[3] = target: JAK2/JAK2 homdimeric complex (Homo sapiens (Human), UniProt O60674); test: GM-CSF Induced pSTAT5 in Human PBMC; format: cell-based; details: GM-CSF 5 ng/mL for 20 minutes, pSTAT5 by MSD, read-out: PBMC_GMCSF_pSTAT5 IC50
Chain of JAK2/JAK2 homdimeric complex (O60674 whole entry): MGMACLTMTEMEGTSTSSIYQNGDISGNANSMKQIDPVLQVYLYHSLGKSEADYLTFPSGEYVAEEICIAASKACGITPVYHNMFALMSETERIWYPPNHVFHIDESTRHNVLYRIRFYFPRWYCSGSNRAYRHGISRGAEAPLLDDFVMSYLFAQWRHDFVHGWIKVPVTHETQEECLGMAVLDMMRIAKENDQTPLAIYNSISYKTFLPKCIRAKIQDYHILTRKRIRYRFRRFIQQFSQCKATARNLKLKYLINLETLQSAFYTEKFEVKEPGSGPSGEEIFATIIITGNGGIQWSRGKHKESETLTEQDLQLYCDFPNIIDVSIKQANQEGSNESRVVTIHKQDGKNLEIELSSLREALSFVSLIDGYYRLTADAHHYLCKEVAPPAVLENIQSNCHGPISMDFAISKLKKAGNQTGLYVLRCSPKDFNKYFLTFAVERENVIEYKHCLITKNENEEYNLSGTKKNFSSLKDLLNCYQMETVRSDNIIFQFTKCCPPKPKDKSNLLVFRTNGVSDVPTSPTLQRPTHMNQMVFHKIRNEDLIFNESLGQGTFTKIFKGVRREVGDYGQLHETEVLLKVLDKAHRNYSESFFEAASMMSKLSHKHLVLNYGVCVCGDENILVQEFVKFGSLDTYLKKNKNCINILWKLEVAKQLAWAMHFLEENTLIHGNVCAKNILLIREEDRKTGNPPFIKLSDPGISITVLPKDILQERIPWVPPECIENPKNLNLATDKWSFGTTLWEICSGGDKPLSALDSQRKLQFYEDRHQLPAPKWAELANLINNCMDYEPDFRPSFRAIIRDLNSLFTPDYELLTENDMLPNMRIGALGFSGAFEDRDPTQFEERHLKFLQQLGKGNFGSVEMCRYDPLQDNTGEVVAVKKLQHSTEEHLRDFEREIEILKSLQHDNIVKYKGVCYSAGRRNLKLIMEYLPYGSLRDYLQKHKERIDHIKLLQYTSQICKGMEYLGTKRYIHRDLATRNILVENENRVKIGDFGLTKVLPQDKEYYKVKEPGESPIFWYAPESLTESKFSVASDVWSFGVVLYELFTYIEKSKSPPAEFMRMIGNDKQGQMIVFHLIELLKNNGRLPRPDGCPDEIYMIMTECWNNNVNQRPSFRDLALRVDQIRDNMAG
Chain of JAK2/JAK2 homdimeric complex (P32927 17-897 partner): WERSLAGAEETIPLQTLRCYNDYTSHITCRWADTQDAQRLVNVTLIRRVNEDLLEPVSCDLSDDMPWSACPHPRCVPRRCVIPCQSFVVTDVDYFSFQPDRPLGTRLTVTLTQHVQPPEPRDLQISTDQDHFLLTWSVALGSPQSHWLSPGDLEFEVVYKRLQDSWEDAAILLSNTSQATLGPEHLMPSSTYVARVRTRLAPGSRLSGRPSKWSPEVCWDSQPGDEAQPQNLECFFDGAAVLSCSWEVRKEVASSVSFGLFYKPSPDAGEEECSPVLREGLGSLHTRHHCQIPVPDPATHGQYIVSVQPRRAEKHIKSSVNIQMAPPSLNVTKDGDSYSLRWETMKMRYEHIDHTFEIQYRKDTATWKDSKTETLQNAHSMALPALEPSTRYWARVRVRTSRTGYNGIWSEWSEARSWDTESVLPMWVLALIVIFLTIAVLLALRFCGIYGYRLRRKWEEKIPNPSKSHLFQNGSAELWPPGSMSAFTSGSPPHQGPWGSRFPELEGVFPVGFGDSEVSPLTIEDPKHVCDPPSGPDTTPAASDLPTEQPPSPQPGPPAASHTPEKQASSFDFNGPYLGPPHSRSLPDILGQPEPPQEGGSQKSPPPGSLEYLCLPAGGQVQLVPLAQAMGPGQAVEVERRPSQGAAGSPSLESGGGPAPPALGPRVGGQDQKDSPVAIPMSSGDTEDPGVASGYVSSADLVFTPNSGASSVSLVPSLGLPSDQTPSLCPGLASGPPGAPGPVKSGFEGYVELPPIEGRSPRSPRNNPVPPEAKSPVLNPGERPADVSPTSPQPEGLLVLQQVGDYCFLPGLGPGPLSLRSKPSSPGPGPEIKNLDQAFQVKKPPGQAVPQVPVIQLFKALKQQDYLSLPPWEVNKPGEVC

Chain of human TYK2 (JH2domain-pseudokinase) (P29597 556-888): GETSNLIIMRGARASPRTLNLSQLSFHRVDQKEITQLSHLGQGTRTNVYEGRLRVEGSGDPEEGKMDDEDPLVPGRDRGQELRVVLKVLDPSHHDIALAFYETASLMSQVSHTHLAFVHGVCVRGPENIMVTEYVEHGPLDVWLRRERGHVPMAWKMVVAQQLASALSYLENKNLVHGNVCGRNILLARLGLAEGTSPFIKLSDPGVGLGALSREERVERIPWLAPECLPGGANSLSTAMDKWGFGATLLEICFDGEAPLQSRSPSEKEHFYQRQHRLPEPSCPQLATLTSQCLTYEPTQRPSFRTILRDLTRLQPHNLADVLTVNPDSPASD
Chain of Tyk2 kinase domain (DH1) (P29597 897-1176): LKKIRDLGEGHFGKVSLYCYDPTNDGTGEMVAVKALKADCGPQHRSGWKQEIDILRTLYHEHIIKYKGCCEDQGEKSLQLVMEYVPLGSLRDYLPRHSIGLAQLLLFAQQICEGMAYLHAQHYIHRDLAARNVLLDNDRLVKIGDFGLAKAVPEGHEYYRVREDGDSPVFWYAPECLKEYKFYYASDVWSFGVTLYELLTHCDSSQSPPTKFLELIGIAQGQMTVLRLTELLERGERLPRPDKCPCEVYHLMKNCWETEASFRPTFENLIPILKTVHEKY
Chain of Tyk2/JAK2 (heterodimeric complex) (P29597 whole entry, other chains not shown): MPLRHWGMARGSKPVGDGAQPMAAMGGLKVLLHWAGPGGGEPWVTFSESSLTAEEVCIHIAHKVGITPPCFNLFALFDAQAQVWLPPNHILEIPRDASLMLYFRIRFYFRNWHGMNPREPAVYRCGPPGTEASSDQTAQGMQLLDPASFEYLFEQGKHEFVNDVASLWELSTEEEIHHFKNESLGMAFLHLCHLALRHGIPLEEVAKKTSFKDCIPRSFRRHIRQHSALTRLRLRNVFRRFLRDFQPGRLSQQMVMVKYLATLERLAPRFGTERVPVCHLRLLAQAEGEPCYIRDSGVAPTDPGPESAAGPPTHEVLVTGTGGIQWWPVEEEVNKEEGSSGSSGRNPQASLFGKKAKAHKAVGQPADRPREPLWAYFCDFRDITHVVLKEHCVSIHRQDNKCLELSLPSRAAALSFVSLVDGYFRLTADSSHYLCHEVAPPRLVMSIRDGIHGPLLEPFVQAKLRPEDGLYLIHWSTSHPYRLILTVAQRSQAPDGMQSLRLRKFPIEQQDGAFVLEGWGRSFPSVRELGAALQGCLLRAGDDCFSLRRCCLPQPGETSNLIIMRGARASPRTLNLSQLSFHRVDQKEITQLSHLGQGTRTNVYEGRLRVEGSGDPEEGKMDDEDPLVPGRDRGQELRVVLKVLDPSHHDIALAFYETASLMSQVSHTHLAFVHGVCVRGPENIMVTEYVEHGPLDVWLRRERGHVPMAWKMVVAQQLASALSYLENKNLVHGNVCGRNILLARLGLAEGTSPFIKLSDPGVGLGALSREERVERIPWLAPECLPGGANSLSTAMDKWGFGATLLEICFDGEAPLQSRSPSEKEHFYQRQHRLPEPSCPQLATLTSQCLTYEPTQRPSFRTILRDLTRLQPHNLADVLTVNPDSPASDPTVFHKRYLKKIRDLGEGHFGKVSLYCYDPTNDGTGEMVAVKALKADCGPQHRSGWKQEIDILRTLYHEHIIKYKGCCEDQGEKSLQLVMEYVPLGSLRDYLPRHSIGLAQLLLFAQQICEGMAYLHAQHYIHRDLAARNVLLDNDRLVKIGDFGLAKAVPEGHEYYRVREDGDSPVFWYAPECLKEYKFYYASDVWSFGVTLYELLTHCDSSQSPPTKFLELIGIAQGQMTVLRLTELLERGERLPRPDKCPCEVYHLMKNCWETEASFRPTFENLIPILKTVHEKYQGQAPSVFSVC
Chain of JAK2 kinase domain (JH1) (O60674 849-1124): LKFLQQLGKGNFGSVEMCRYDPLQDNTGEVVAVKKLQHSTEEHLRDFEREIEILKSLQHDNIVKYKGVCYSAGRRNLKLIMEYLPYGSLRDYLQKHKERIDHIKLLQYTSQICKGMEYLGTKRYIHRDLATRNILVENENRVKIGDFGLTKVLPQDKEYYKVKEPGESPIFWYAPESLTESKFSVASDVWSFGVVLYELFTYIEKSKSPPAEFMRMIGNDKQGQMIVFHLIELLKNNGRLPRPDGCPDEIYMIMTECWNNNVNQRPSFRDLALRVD

| SMILES | Kd [1] [nM] | IC50 [2] [nM] | other results |
| --- | --- | --- | --- |
| CNc1cc(Nc2cccn(-c3ccc(F)cc3)c2=O)nc2c(C(N)=O)cnn12 [I-9] | < 0.2 | 100 to 500 | inhibition at 10 µM (Tyk2 kinase domain (DH1); compound at 10 μM, ATP 10 μM): < 50%; inhibition at 10 µM (JAK2 kinase domain (JH1); compound at 10 μM, ATP 10 μM): < 50% |
| CNc1cc(Nc2cccn([C@@H]3CCCOC3)c2=O)nc2c(C(=O)NC3CC3)cnn12 [I-351] | < 0.2 | < 100 | inhibition at 10 µM (Tyk2 kinase domain (DH1); compound at 10 μM, ATP 10 μM): < 50%; inhibition at 10 µM (JAK2 kinase domain (JH1); compound at 10 μM, ATP 10 μM): < 50% |
| CNc1cc(Nc2cccn([C@H]3CC[C@@](C)(O)CC3)c2=O)nc2c(C(=O)N[C@H]3C[C@H]3F)cnn12 [I-370] | < 0.2 | < 100 | inhibition at 10 µM (Tyk2 kinase domain (DH1); compound at 10 μM, ATP 10 μM): < 50%; inhibition at 10 µM (JAK2 kinase domain (JH1); compound at 10 μM, ATP 10 μM): < 50% |
| CNc1cc(Nc2cccn([C@H]3CC[C@](C)(O)CC3)c2=O)nc2c(C(=O)NC3CC3)cnn12 [I-371] | < 0.2 | 100 to 500 | inhibition at 10 µM (Tyk2 kinase domain (DH1); compound at 10 μM, ATP 10 μM): < 50%; inhibition at 10 µM (JAK2 kinase domain (JH1); compound at 10 μM, ATP 10 μM): < 50% |
| CNc1cc(Nc2cccn([C@H]3CC[C@](C)(O)CC3)c2=O)nc2c(C(=O)N[C@H]3C[C@H]3F)cnn12 [I-372] | < 0.2 | < 100 | inhibition at 10 µM (Tyk2 kinase domain (DH1); compound at 10 μM, ATP 10 μM): < 50%; inhibition at 10 µM (JAK2 kinase domain (JH1); compound at 10 μM, ATP 10 μM): < 50% |
| CNc1cc(Nc2cccn(-c3nn(C)cc3C)c2=O)nc2c(C(=O)NC3CC3)cnn12 [I-404] | 0.2 to 1 | > 1000 | inhibition at 10 µM (Tyk2 kinase domain (DH1); compound at 10 μM, ATP 10 μM): < 50%; inhibition at 10 µM (JAK2 kinase domain (JH1); compound at 10 μM, ATP 10 μM): < 50% |
| CNc1cc(Nc2cccn(-c3nn(C)cc3C)c2=O)nc2c(C(=O)N[C@H]3C[C@H]3F)cnn12 [I-405] | 0.2 to 1 | 100 to 500 | inhibition at 10 µM (Tyk2 kinase domain (DH1); compound at 10 μM, ATP 10 μM): < 50%; inhibition at 10 µM (JAK2 kinase domain (JH1); compound at 10 μM, ATP 10 μM): < 50% |
| CNc1cc(Nc2cccn([C@H]3CCC[C@@H](OC)C3)c2=O)nc2c(C(=O)NCC(C)(C)CO)cnn12 [I-861] | < 0.2 | < 100 | inhibition at 10 µM (Tyk2 kinase domain (DH1); 10 μM compound, 10 μM ATP): < 50%; inhibition at 10 µM (JAK2 kinase domain (JH1); 10 μM compound, 10 μM ATP): < 50% |
| CNc1cc(Nc2cccn(-c3ncccc3F)c2=O)nc2c(C(=O)O)cnn12 [I-893, 5-((3′-fluoro-2-oxo-2H-[1,2′-bipyridin]-3-yl)amino)-7-(methylamino) pyrazolo[1,5-a]pyrimidine-3-carboxylic acid] | 1 to 10 | > 1000 | inhibition at 10 µM (Tyk2 kinase domain (DH1); 10 μM compound, 10 μM ATP): < 50%; inhibition at 10 µM (JAK2 kinase domain (JH1); 10 μM compound, 10 μM ATP): < 50% |
| CNc1cc(Nc2cccn([C@H]3CCCN(CCF)C3)c2=O)nc2c(C(=O)N[C@@H]3C[C@@H]3F)cnn12 [I-900] | < 0.2 | < 100 | inhibition at 10 µM (Tyk2 kinase domain (DH1); 10 μM compound, 10 μM ATP): < 50%; inhibition at 10 µM (JAK2 kinase domain (JH1); 10 μM compound, 10 μM ATP): < 50% |
| CNc1cc(Nc2cccn([C@H]3CC[C@](C)(OC)CC3)c2=O)nc2c(C(=O)N[C@@H]3CC[C@H]3O)cnn12 [I-1107] | < 0.2 | – | IC50 [3]: > 2500 nM; inhibition at 10 µM (Tyk2 kinase domain (DH1); 10 μM compound, 10 μM ATP): < 50%; inhibition at 10 µM (JAK2 kinase domain (JH1); 10 μM compound, 10 μM ATP): < 50% |
| CNc1cc(Nc2cccn3ccnc23)nc2c(C(=O)N[C@@H]3CC[C@H]3OC)cnn12 [I-1133] | 1 to 10 | < 100 | – |
| CNc1cc(-c2cn([C@H]3CCCOC3)c3ncccc23)nc2c(C(=O)N[C@H]3CC[C@@H]3OC)cnn12 [I-1283] | 1 to 10 | < 100 | – |
| CNc1cc(Nc2cccn(-c3ccccn3)c2=O)nc2c(C(=O)N[C@@H]3C[C@H]3OC)cnn12 [I-1286] | < 0.2 | < 100 | – |
| CNc1cc(Nc2cccn([C@H]3CCC[C@@H](O)C3)c2=O)nc2c(C(=O)N[C@H]3CC[C@@H]3OC)cnn12 [I-1296] | < 0.2 | < 100 | – |
| CNc1cc(-c2cn(CCCO)c3ncccc23)nc2c(C(=O)N[C@@H]3CC[C@H]3OC)cnn12 [I-1299] | < 0.2 | < 100 | – |
| CNc1cc(Nc2cccn([C@@H]3CC[C@H]3O)c2=O)nc2c(C(=O)N[C@@H]3CC[C@H]3OC)cnn12 [I-1309] | < 0.2 | < 100 | – |
| CNc1cc(-c2cn(C3CCOCC3)c3ncc(F)cc23)nc2c(C(=O)N[C@H]3CC[C@@H]3O)cnn12 [I-1314] | < 0.2 | < 100 | – |
| CNc1cc(Nc2cccn(-c3nn(C)cc3F)c2=O)nc2c(C(=O)N[C@@H]3C[C@@H]3F)cnn12 [I-1321] | < 0.2 | < 100 | – |
| CNC(=O)c1occc1Nc1cc(NC)n2ncc(C(=O)N[C@H]3CC[C@@H]3OC)c2n1 [I-1323] | 1 to 10 | < 100 | – |
| CNc1cc(Nc2cc3cccnc3n2C2CC2)nc2c(C(=O)N[C@H]3CC[C@@H]3OC)cnn12 [I-1325] | < 0.2 | < 100 | – |

| SMILES | Kd [1] [nM] | IC50 [2] [nM] | other results |
| --- | --- | --- | --- |
| CNc1cc(-c2cn(C3CCOCC3)c3ncccc23)nc2c(C(=O)N[C@@H]3CC[C@H]3OC)cnn12 [I-1328] | 0.2 to 1 | < 100 | – |
| CNc1cc(Nc2cccn([C@@H]3CCC[C@@H](OC)C3)c2=O)nc2c(C(=O)N[C@H]3CC[C@@H]3OC)cnn12 [I-1331] | 1 to 10 | < 100 | – |
| CNc1cc(Nc2cccn([C@@H]3CCN(CCF)C3)c2=O)nc2c(C(=O)N[C@@H]3CC[C@H]3OC)cnn12 [I-1333] | 1 to 10 | < 100 | – |
| CNc1cc(Nc2cccn3cnnc23)nc2c(C(=O)N[C@H]3CC[C@@H]3OC)cnn12 [I-1343] | – | < 100 | – |
| CNc1cc(Nc2cccn([C@@H]3CC[C@@H]3O)c2=O)nc2c(C(=O)N[C@@H]3CC[C@H]3OC)cnn12 [I-1350] | < 0.2 | < 100 | – |
| CNc1cc(-c2cn([C@H]3CCN(CCF)C3)c3ncccc23)nc2c(C(=O)N[C@@H]3C[C@@H]3F)cnn12 [I-1362] | 0.2 to 1 | < 100 | – |
| CNc1cc(-c2cn([C@@H]3CCCOC3)c3ncccc23)nc2c(C(=O)N[C@H]3CC[C@@H]3OC)cnn12 [I-1364] | 0.2 to 1 | < 100 | – |
| CNc1cc(-c2cn([C@H]3CCCOC3)c3ncccc23)nc2c(C(=O)N[C@H]3CC[C@@H]3OC)cnn12 [I-1365] | < 0.2 | < 100 | – |
| CNc1cc(-c2cn([C@@H]3CCN(CCF)C3)c3ncccc23)nc2c(C(=O)N[C@@H]3C[C@@H]3F)cnn12 [I-1366] | 1 to 10 | < 100 | – |
| CNc1cc(Nc2cccn(-c3cnn(C)c3F)c2=O)nc2c(C(=O)N[C@H]3CC[C@@H]3OC)cnn12 [I-1369] | – | < 100 | – |
| CNc1cc(Nc2cccn([C@H]3CCC[C@H]3O)c2=O)nc2c(C(=O)N[C@H]3CC[C@@H]3OC)cnn12 [I-1373] | – | < 100 | – |
| CNc1cc(Nc2cccn([C@H]3CCC[C@H](OC)C3)c2=O)nc2c(C(=O)N[C@@H]3CC[C@H]3OC)cnn12 [I-1374] | 0.2 to 1 | < 100 | – |
| CNc1cc(Nc2cccn([C@H]3CCCC[C@H]3OC)c2=O)nc2c(C(=O)N[C@H]3CC[C@@H]3OC)cnn12 [I-1377] | – | < 100 | – |
| CNc1cc(Nc2cccn([C@H]3CCN(CCF)C3)c2=O)nc2c(C(=O)N[C@H]3CC[C@@H]3OC)cnn12 [I-1381] | 0.2 to 1 | < 100 | – |
| CNc1cc(Nc2cccn([C@@H]3CCCN(CCF)C3)c2=O)nc2c(C(=O)N[C@H]3CC[C@@H]3OC)cnn12 [I-1382] | < 0.2 | < 100 | – |
| CNc1cc(Nc2cccn([C@H]3CC[C@@H]3O)c2=O)nc2c(C(=O)N[C@H]3CC[C@@H]3OC)cnn12 [I-1385] | 0.2 to 1 | < 100 | – |
| CNc1cc(-c2cn(C(C)C)c3ncc(F)cc23)nc2c(C(=O)N[C@H]3CC[C@H]3O)cnn12 [I-1387] | 1 to 10 | < 100 | – |
| CNc1cc(-c2cn(CCCO)c3ncccc23)nc2c(C(=O)N[C@H]3CC[C@@H]3OC)cnn12 [I-1388] | 0.2 to 1 | < 100 | – |
| CNc1cc(Nc2cccn(C3CC(F)(F)C3)c2=O)nc2c(C(=O)N[C@H]3CC[C@@H]3OC)cnn12 [I-1389] | 0.2 to 1 | < 100 | – |
| CNc1cc(Nc2cccn([C@H]3CCC[C@H](O)C3)c2=O)nc2c(C(=O)N[C@@H]3CC[C@H]3OC)cnn12 [I-1395] | 0.2 to 1 | < 100 | – |
| CNc1cc(Nc2cccn([C@@H]3CC[C@@H]3O)c2=O)nc2c(C(=O)N[C@H]3CC[C@@H]3OC)cnn12 [I-1411] | 1 to 10 | < 100 | – |
